PubChem BioAssay AID330 (DTP/NCI, 2004)
Several values for one entry are separate records, joined by “and”; a condition that tells them apart may be missing. Equal values may be shown once. Toxic doses and inconclusive results are not listed. How the source made its calls: active means survival T/C of 150% or more; inactive means T/C below 125% in these data.

Tested on: P388 leukemia ip, CD2F1 mice, survival T/C
Experiment: NCI In Vivo Anticancer Drug Screen. Data for tumor model P388 Leukemia (intraperitoneal) in CD2F1 (CDF1) mice
Details: endpoint: median survival time, higher = longer survival
Summary of the method: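 Mice carrying the transplanted tumor received test compound or vehicle. Survival was recorded in each group, and the value is the treated-group measurement divided by that of the vehicle-treated control group.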

[1] = dose: 50.0 mg/kg/injection, schedule: Q01DX009 (ip), vehicle: saline with Tween-80
[2] = dose: 100.0 mg/kg/injection, schedule: Q01DX009 (ip), vehicle: saline with Tween-80
[3] = dose: 200.0 mg/kg/injection, schedule: Q01DX009 (ip), vehicle: saline with Tween-80
[4] = dose: 25.0 mg/kg/injection, schedule: Q01DX009 (ip), vehicle: saline with Tween-80
[5] = dose: 50.0 mg/kg/injection, schedule: Q01DX009 (ip), vehicle: saline
[6] = dose: 100.0 mg/kg/injection, schedule: Q01DX009 (ip), vehicle: saline
[7] = dose: 200.0 mg/kg/injection, schedule: Q01DX009 (ip), vehicle: saline
[8] = dose: 50.0 mg/kg/injection, schedule: Q01DX005 (ip), vehicle: saline with Tween-80
[9] = dose: 100.0 mg/kg/injection, schedule: Q01DX005 (ip), vehicle: saline with Tween-80
[10] = dose: 200.0 mg/kg/injection, schedule: Q01DX005 (ip), vehicle: saline with Tween-80
[11] = dose: 50.0 mg/kg/injection, schedule: Q01DX005 (ip), vehicle: Klucel (hydroxypropylcellulose) (HPC)
[12] = dose: 100.0 mg/kg/injection, schedule: Q01DX005 (ip), vehicle: Klucel (hydroxypropylcellulose) (HPC)
[13] = dose: 200.0 mg/kg/injection, schedule: Q01DX005 (ip), vehicle: Klucel (hydroxypropylcellulose) (HPC)
[14] = dose: 100.0 mg/kg/injection, schedule: Q01DX001 (ip), vehicle: saline with Tween-80
[15] = dose: 200.0 mg/kg/injection, schedule: Q01DX001 (ip), vehicle: saline with Tween-80
[16] = dose: 400.0 mg/kg/injection, schedule: Q01DX001 (ip), vehicle: saline with Tween-80
[17] = dose: 60.0 mg/kg/injection, schedule: Q01DX005 (ip), vehicle: saline with Tween-80
[18] = dose: 120.0 mg/kg/injection, schedule: Q01DX005 (ip), vehicle: saline with Tween-80
[19] = dose: 6.25 mg/kg/injection, schedule: Q01DX005 (ip), vehicle: saline with Tween-80
[20] = dose: 12.5 mg/kg/injection, schedule: Q01DX005 (ip), vehicle: saline with Tween-80

Measured: T/C

COc1cc(C(=O)NOCc2cc3c(cc2Cl)OCO3)cc(OC)c1OC
inactive: dose: 100.0 mg/kg/injection, schedule: Q04DX003 (ip), vehicle: saline sonified 90 % of control | dose: 400.0 mg/kg/injection, schedule: Q04DX003 (ip), vehicle: saline sonified 90 % of control

O=C1NC(=O)C(C2CCOC2=O)N1 (centres undefined)
inactive: [1] 106 % of control | [2] 102 % of control | [3] 106 % of control

O=[N+]([O-])c1c(Sc2ccccc2)ncnc1Sc1ccccc1
inactive: dose: 12.5 mg/kg/injection, schedule: Q01DX009 (ip), vehicle: saline with Tween-80 100 % of control | [4] 100 % of control | [1] 91 % of control | [5] 95 % of control

CC(C)n1cnc2c(=S)nc[nH]c21
inactive: [4] 90 % of control | [1] 100 % of control | [2] 109 % of control

Cc1c(C(=O)O)nc(-c2ccc3c(n2)C(=O)C(N)=CC3=O)c2[nH]c3ccccc3c12
inactive: dose: 0.1 mg/kg/injection, schedule: Q01DX009 (ip), vehicle: distilled water + Tween-80 + alcohol 110 % of control | dose: 0.2 mg/kg/injection, schedule: Q01DX009 (ip), vehicle: distilled water + Tween-80 + alcohol 116 % of control | dose: 0.4 mg/kg/injection, schedule: Q01DX009 (ip), vehicle: distilled water + Tween-80 + alcohol 112 % of control | dose: 0.8 mg/kg/injection, schedule: Q01DX009 (ip), vehicle: distilled water + Tween-80 + alcohol 113 % of control

NS(=O)(=O)c1cccc(NC(=S)Nc2ccccc2)c1
inactive: dose: 6.25 mg/kg/injection, schedule: Q01DX009 (ip), vehicle: saline 103 % of control (2×) and 108 % of control | dose: 12.5 mg/kg/injection, schedule: Q01DX009 (ip), vehicle: saline 101 % of control and 106 % of control | dose: 25.0 mg/kg/injection, schedule: Q01DX009 (ip), vehicle: saline 99 % of control and 109 % of control and 94 % of control | [6] 99 % of control and 92 % of control | [7] 100 % of control and 110 % of control

Cc1ccc2nc3c(nc2c1)n(-c1ccccc1)c(=O)n3-c1cccc(Br)c1
inactive: [8] 88 % of control | [9] 91 % of control | [10] 100 % of control

O=C1Cc2cccc3cccc1c23
inactive: [4] 90 % of control | [1] 104 % of control | [2] 96 % of control | [3] 111 % of control

COC(=O)c1ccc(/C=C/C#N)cc1
inactive: [5] 100 % of control | [6] 102 % of control | [7] 97 % of control

CC(C)CNC1=CC(=S)NC(C)(C)C1
inactive: [11] 99 % of control | [12] 101 % of control | [13] 94 % of control

CC(=O)OCC1OC(Nc2ncc(-c3ccc(C)cc3)s2)C(OC(C)=O)C(OC(C)=O)C1OC(C)=O (centres undefined)
inactive: [8] 98 % of control | [9] 98 % of control | [10] 92 % of control

O=c1c2ccccc2c(-c2ccc(N(CCCl)CCCl)cc2)cn1CCCl
inactive: dose: 25.0 mg/kg/injection, schedule: Q04DX003 (ip), vehicle: Klucel (hydroxypropylcellulose) (HPC) 100 % of control | dose: 50.0 mg/kg/injection, schedule: Q04DX003 (ip), vehicle: Klucel (hydroxypropylcellulose) (HPC) 114 % of control | dose: 100.0 mg/kg/injection, schedule: Q04DX003 (ip), vehicle: Klucel (hydroxypropylcellulose) (HPC) 107 % of control | dose: 200.0 mg/kg/injection, schedule: Q04DX003 (ip), vehicle: Klucel (hydroxypropylcellulose) (HPC) 115 % of control | dose: 400.0 mg/kg/injection, schedule: Q04DX003 (ip), vehicle: Klucel (hydroxypropylcellulose) (HPC) 100 % of control

C/C(=N\OC(=O)CNOC(C)(C)C)c1ccccn1
inactive: [14] 103 % of control | [15] 99 % of control | [16] 99 % of control

O=C1NC(=S)N/C1=C\c1ccc(Cl)c(Cl)c1
inactive: [2] 95 % of control | [3] 94 % of control | dose: 400.0 mg/kg/injection, schedule: Q01DX009 (ip), vehicle: saline with Tween-80 91 % of control

Cc1ccc2c[n+]3ccccc3c(-c3ccccc3)c2c1
inactive: dose: 1.56 mg/kg/injection, schedule: Q04DX003 (ip), vehicle: Klucel (hydroxypropylcellulose) (HPC) 100 % of control | dose: 3.12 mg/kg/injection, schedule: Q04DX003 (ip), vehicle: Klucel (hydroxypropylcellulose) (HPC) 100 % of control

O=C(NC1CCCN1C(=O)/C=C/c1ccccc1)NC1CCCN1C(=O)/C=C/c1ccccc1 (centres undefined)
inactive: [17] 100 % of control | [18] 88 % of control | dose: 240.0 mg/kg/injection, schedule: Q01DX005 (ip), vehicle: saline with Tween-80 101 % of control

Cc1[nH]c2ccc(CN)cc2c1CC(N)C(=O)O (centres undefined)
inactive: dose: 100.0 mg/kg/injection, schedule: Q01DX001 (ip), vehicle: saline 110 % of control | dose: 200.0 mg/kg/injection, schedule: Q01DX001 (ip), vehicle: saline 104 % of control | dose: 400.0 mg/kg/injection, schedule: Q01DX001 (ip), vehicle: saline 107 % of control

CC1(C)OC2OC(/C=N\NC(=O)c3cc4cc(OCc5ccccc5)ccc4[nH]3)C3OC(C)(C)OC3C2O1 (centres undefined)
inactive: [11] 102 % of control | [12] 104 % of control | [13] 102 % of control

N#CN(Cc1ccccc1)C(c1ccccc1)(c1ccccc1)c1ccccc1.[Cl][Sn]([c]1ccccc1)([c]1ccccc1)[c]1ccccc1
inactive: dose: 3.12 mg/kg/injection, schedule: Q01DX005 (ip), vehicle: saline with Tween-80 91 % of control | [19] 98 % of control | [20] 91 % of control

CC/C(C)=N\Nc1cc(C)[nH]c(=O)c1
inactive: [14] 105 % of control | [15] 100 % of control | [16] 91 % of control

OC(COc1c2ccccc2nc2ccccc12)CN1CCN(c2cccc(Cl)c2)CC1 (centres undefined)
inactive: [8] 90 % of control | [9] 88 % of control | [10] 90 % of control

CNC(=O)Nc1ccc(/C(C)=N/NC(N)=S)cc1
inactive: [17] 96 % of control | [18] 89 % of control

COc1ccc([N+](=O)[O-])cc1NC(=O)N(C)Cc1ccco1
inactive: [1] 103 % of control | [2] 109 % of control | [3] 106 % of control

OCCN1CCCN(CCCN2c3ccccc3Sc3ccc(C(F)(F)F)cc32)CC1
inactive: [19] 97 % of control | [20] 102 % of control | dose: 25.0 mg/kg/injection, schedule: Q01DX005 (ip), vehicle: saline with Tween-80 118 % of control

O=C1OC(=O)C2CC3OC3CC12 (centres undefined)
inactive: dose: 12.5 mg/kg/injection, schedule: Q01DX001 (ip), vehicle: saline 104 % of control | dose: 25.0 mg/kg/injection, schedule: Q01DX001 (ip), vehicle: saline 109 % of control | dose: 50.0 mg/kg/injection, schedule: Q01DX001 (ip), vehicle: saline 100 % of control

Cc1cc(NS(=O)(=O)c2ccc(N)cc2)no1
inactive: dose: 25.0 mg/kg/injection, schedule: Q01DX005 (ip), vehicle: saline 106 % of control | dose: 50.0 mg/kg/injection, schedule: Q01DX005 (ip), vehicle: saline 103 % of control | dose: 100.0 mg/kg/injection, schedule: Q01DX005 (ip), vehicle: saline 114 % of control | dose: 200.0 mg/kg/injection, schedule: Q01DX005 (ip), vehicle: saline 101 % of control | dose: 400.0 mg/kg/injection, schedule: Q01DX005 (ip), vehicle: saline 97 % of control
